These results are taken from patent US9051544B2, “Method of enhancing cell growth using alkyl-amine-n-oxide (AANOx)” (BAXTER INTERNATIONAL INC., priority 2008, dated 2015).

For data set [1], the system named is CHO cells expressing FVIII. The class given is cell-based, Chinese hamster. The protocol: In order to determine the effect of DDAO levels in cell growth, experiments were undertaken using CHO cells expressing FVIII with varying levels of DDAO equivalent to the contaminating amount in certain lots of commercial soy hydrolysate.
Cells from a bioreactor containing CHO cells in BAV serum free media, DMEM/HAM's F12 medium (11.76 g) supplemented with soya-peptone (4 g), ethanolamine (1.53 mg), L-glutamine (0.6 g), NaHCO3 (2.0 g) and SYNPERONIC (PLURONIC®) F68 (0.25 g) (see International Patent Publ. WO/2006/045438) were cultured with 4 g/L soy peptone in 60 mL Roux flasks. Roux flasks provide a static, unmoving environment for the cells to grow.

The test system of a further data set is CHO cells. Description: DDAO spiked into media at 0-50 ppm or equivalent ppb, in duplicate by serial dilution; cell growth and viability. The class given is cell-based, Chinese hamster. An excerpt: In separate experiments, DDAO was spiked into media at differing concentrations between 0-50 ppm or equivalent ppb in duplicate using serial dilution of high DDAO containing-media to reduce error (FIGS. 3 and 4).

Another data set deals with Bacillus bacteria. The following applies: Bacillus bacteria in culture; Brycki et al.; cited from earlier work.

Take `CCCCCCCCCCCC[N+](C)(C)[O-]` [DDAO, dodecyldimethylamine oxide]: in data set [1] (Chinese hamster), the “DDAO level above which toxicity is shown” value is “above 21.5 ppm”. In addition, the “DDAO level up to which there is a positive effect on cell growth” value in data set [1] (ppm equivalent in the soy hydrolysate, Roux flasks) is “up to 20 ppm”. Moreover, the “DDAO level up to which there is a beneficial effect on cell growth” value is on record as 5-10 ppb in the data set on CHO cells (FIG. 3) and 6-10 ppm with CHO cells (FIG. 4, duplicate samples). Moreover, the “DDAO level above which the process of denitrification is slowed” value in the data set with Bacillus bacteria is on record as “above 75 parts per million”.
